Experimental data from US5668144A, “1-azabicyclopheptane derivatives” (American Home Products Corporation, priority 1996, dated 1997).

How the values were obtained:
[1] = system: patients with mild to moderate Alzheimer's Disease; conditions: cited from earlier work; for memory in patients (in words): mild to moderate Alzheimer's Disease
muscarinic receptors = conditions: disclosed in earlier patents; cited from earlier work
[2] = system: scopolamine disrupted rat performance; test: Eight arm radial maze, reversal of scopolamine disrupted rat performance; format: in vivo, Sprague-Dawley male rats; conditions: ip, test compound i.p., scopolamine HBr 0.3 mg/kg s.c., read-out: minimum effective dose (MED), reversal of scopolamine disrupted rat performance
Protocol: The compound of Example 3 was also tested in the eight arm radial maze test procedure in which Sprague-Dawley male rats at 85% of their free feeding weight are trained to obtain two food pellets from food cups placed at the ends of four of the eight arms radiating from a circular central area of the maze, in a five minute period. After training to a level of error (return to a previously entered arm is error) equal to or less than 2, the rats performance is disrupted with scopolamine HBr (0.3 mg/kg, s.c.) and test compound dosage (i.p.). The number of errors are then determined and compared with control receiving scopolamine alone.

[3] = target: T1, M1 acetylcholine receptors (Homo sapiens, UniProt P11229); test: PI hydrolysis stimulation in CHO cells expressing M1 acetylcholine receptors (muscarinic m1 agonism); format: cell-based; conditions: exo versus endo azacycloheptane analog
T1 sequence (P11229 1-460): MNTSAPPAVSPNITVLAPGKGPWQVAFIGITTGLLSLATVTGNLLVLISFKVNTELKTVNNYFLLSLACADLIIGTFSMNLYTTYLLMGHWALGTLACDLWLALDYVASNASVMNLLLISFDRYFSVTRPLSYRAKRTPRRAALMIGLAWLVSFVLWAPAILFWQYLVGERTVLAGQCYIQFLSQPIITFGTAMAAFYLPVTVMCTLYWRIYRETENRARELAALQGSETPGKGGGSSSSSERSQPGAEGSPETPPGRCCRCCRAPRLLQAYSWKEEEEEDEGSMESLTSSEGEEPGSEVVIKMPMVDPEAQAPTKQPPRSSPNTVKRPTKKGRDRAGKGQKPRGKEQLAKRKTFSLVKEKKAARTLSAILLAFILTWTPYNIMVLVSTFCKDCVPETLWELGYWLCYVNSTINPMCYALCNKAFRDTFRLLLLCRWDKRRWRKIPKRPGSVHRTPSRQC

[4] = quaternary ammonium group; cited from earlier work
m1 receptors = conditions: cited from earlier work
[5] = in vivo; cited from earlier work
[6] = system: scopolamine treated animals; test: Reversal of scopolamine hyperactivity, mouse swim tank test; format: in vivo, Male CFW mice; conditions: ip, scopolamine HBr 0.3 mg/kg, read-out: minimum effective dose (MED), reversal of hyperactivity of scopolamine treated animals
Protocol: The compound of Example 3, representative of the other compounds of this invention, was also tested in accordance with the procedure of Symons et al, Soc. Neuroscience Abstracts 12:2, 897 (1986) in which Male CFW mice, 25 to 35 grams in weight are given the test compound in suitable vehicle plus 0.3 mg/kg scopolamine. HBr in suitable vehicle, i.p.(3 groups of 12 animals each) or vehicle alone (1 group of 12 animals ) or vehicle plus scopolamine. HBr (1 group of 12 animals). The mice are placed in a swim tank, individually, containing 10 cm H2 O for a period of 5 minutes and the distance each animal swims is recorded.

Nc1c2c(nc3ccccc13)CCCC2 [tacrine]
adverse side effects (in words) ([1]; especially at the higher doses where it is most effective): adverse side effects especially at the higher doses | memory in patients (in words) [1]: improvement in memory

CNC(=O)OC1CN2CCCC1C2 (stereo not drawn) [exo-1-azabicyclo[3.2.1]oct-6-yl-N-methylcarbamate]
muscarinic activity (in words) (muscarinic receptors): muscarinic activity

CNC(=O)O[C@@H]1CN2CC[C@@H]1C2 (single isomer, unassigned) [Example 2, (+)-(exo)-Methylcarbamic acid 1-aza-bicyclo[2.2.1]hept-3-yl ester]
minimal effective dose [2]: 1 mg/kg

CNC(=O)O[C@@H]1CN2CC[C@@H]1C2 (relative stereo) [Example 1, (exo)-Methylcarbamic acid 1-aza-bicyclo[2.2.1]hept-3-yl ester]
muscarinic agonism (in words) [3]: enhanced muscarinic agonism

CN(C)C(=O)OC1CC2CCCN(C2)C1 (stereo not drawn) [exo-1-azabicyclo[3.3.1]non-3-yl-N,N-dimethylcarbamate]
muscarinic activity (in words) (muscarinic receptors): muscarinic activity

C[N+](C)(C)CCOC(N)=O [carbachol]
ability to enter the CNS (in words) [4]: not able to enter the CNS

C[C@@H]1O[C@H](C[N+](C)(C)C)C[C@H]1O [muscarine]
ability to enter the CNS (in words) [4]: not able to enter the CNS | activation of m1 receptors (in words) (m1 receptors): able to fully activate m1 receptors

CNC(=O)OC1CC2CCCN(C2)C1 (stereo not drawn) [exo-1-azabicyclo[3.3.1]non-3-yl-N-methylcarbamate]
muscarinic activity (in words) (muscarinic receptors): muscarinic activity

COC(=O)C1=CCCN(C)C1 [Arecoline]
half-life (in words) [5]: short | memory in patients (in words) [1]: memory improvement

CNC(=O)O[C@@H]1CN2CC[C@H]1C2 (relative stereo) [endo azacycloheptane analog]
muscarinic agonism (in words) [3]: not

CNC(=O)O[C@@H]1CN2CC[C@@H]1C2 (single isomer, unassigned) [Example 3, (-)-(exo)-Methylcarbamic acid 1-aza-bicyclo[2.2.1]hept-3-yl ester]
minimal effective dose [6]: 30 mg/kg
